Data as given in BindingDB's records for PubMed 8102785 (University of Pennsylvania, 1993).
*1 amine or outer side, *2 acyl side, *3 side chain or, on linkers, in order; H or OH if unused. Where a SMILES comes first, the peptide text is derived from it. Bridges are numbered along the chain shown (N, C = ends). [ ]: non-standard residue; d: D form. The star is where a group is joined. ξ: configuration not given here. Phe(4-NO2) = N[C@@H](Cc1ccc([N+](=O)[O-])cc1)C(=O)O; X3 = C[C@@H](C(=O)[*:2])N(Cc1ccc2ccccc2c1)[*:1]; NH(1-naphthylmethyl) = c1ccc2c(CN*)cccc2c1; Phe(4-Cl) = N[C@@H](Cc1ccc(Cl)cc1)C(=O)O; dPhe(4-Cl) = N[C@H](Cc1ccc(Cl)cc1)C(=O)O; 1Nal = N[C@@H](Cc1cccc2ccccc12)C(=O)O; 2Nal = N[C@@H](Cc1ccc2ccccc2c1)C(=O)O; d1Nal = N[C@H](Cc1cccc2ccccc12)C(=O)O; d2Nal = N[C@H](Cc1ccc2ccccc2c1)C(=O)O; dThr(3ξ) = CC(O)[C@@H](N)C(=O)O; X1 = O=C(C(N[*:1])S[*:3])[*:2]; Thr(3ξ) = CC(O)[C@H](N)C(=O)O; NMeA = CN[C@@H](C)C(=O)O; ξF = NC(Cc1ccccc1)C(=O)O; Abu = CC[C@H](N)C(=O)O; X2 = CC(O)[C@H](CO)N*; Ahp = NCCCCCCC(=O)O; ξC = NC(CS)C(=O)O; Mpa = O=C(O)CCS

Target: Somatostatin receptor type 4 (Rattus norvegicus, UniProt P30937)
Sequence (P30937 whole entry): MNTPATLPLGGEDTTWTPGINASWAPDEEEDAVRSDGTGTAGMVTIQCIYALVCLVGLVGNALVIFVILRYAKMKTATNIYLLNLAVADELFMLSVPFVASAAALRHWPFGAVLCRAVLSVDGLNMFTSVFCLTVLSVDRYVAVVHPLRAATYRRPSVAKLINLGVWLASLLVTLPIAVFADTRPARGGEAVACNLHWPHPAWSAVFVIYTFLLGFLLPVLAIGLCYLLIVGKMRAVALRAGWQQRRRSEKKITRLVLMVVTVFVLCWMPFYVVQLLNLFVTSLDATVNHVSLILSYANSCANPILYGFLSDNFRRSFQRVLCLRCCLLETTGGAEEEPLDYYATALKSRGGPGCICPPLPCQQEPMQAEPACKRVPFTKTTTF

Structure (SMILES) | Ki
CC(C)[C@@H]1NC(=O)[C@@H](CCCCN)NC(=O)[C@@H](Cc2c[nH]c3ccccc23)NC(=O)[C@@H](Cc2ccc(O)cc2)NC(=O)[C@@H](C)N(C)C(=O)[C@@H](Cc2ccccc2)NC1=O | 26 nM
CC(O)[C@H](CO)NC(=O)[C@@H]1CSSCC(NC(=O)C(N)Cc2ccccc2)C(=O)N[C@H](Cc2ccccc2)C(=O)N[C@H](Cc2c[nH]c3ccccc23)C(=O)N[C@H](CCCCN)C(=O)N[C@H](C(C)O)C(=O)N1 (stereo partly drawn) (H-[ξF][ξC][dF][dW][dK][dThr(3ξ)]C-X2; disulfide 2-7) | 0.57 nM
C[C@@H](O)[C@@H]1NC(=O)[C@H](CCCCN)NC(=O)[C@@H](Cc2c[nH]c3ccccc23)NC(=O)[C@H](Cc2ccccc2)NC(=O)[C@@H]2CCCN2C(=O)[C@H](Cc2ccccc2)NC1=O (cyclo(PF[dW]KTF)) | 3.2 nM
CC(C)[C@@H]1NC(=O)[C@H](CCCCN)NC(=O)[C@@H](Cc2c[nH]c3ccccc23)NC(=O)[C@H](Cc2ccc(O)cc2)NC(=O)[C@@H](NC(=O)[C@H](N)Cc2ccc3ccccc3c2)CSSC[C@@H](C(=O)N[C@H](C(N)=O)[C@@H](C)O)NC1=O [3-(2-Naphtyl)-D-Ala-L-Cys(1)-L-Tyr-D-Trp-L-Lys-L-Val-L-Cys(1)-L-Thr-NH2] | 0.1 nM
C[C@@H](O)[C@@H]1NC(=O)[C@H](CCCCN)NC(=O)[C@@H](Cc2c[nH]c3ccccc23)NC(=O)[C@H](Cc2ccccc2)NC(=O)[C@@H]2CSSCC(NC1=O)C(=O)NCCCCCCC(=O)N2 [(1R,4S,7S,10R,13S,16R)-4-[(R)-1-Hydroxyethyl]-7-(4-aminobutyl)-10-(1H-indole-3-ylmethyl)-13-benzyl-28,29-dithia-2,5,8,11,14,17,25-heptaazabicyclo[14.10.4]triacontane-3,6,9,12,15,18,26-heptone] (cyclo([Ahp]CF[dW]KT[ξC]); disulfide 2-7) | 1.2 nM
CC1NC(=O)C(CCCCN)NC(=O)C(Cc2c[nH]c3ccccc23)NC(=O)C(Cc2ccc(O)cc2)NC(=O)C(NC(=O)C(N)Cc2ccccc2)CSSCC(C(=O)NCc2cccc3ccccc23)NC1=O (stereo not drawn) [BIM 23034] (H-FCYWKAC-{NH(1-naphthylmethyl)}; disulfide 2-7; configuration not given here) | 0.19 nM
CC(C)[C@@H]1NC(=O)[C@H](CCCCN)NC(=O)[C@@H](Cc2c[nH]c3ccccc23)NC(=O)[C@H](Cc2ccc(O)cc2)NC(=O)[C@@H](NC(=O)[C@H](N)Cc2ccc3ccccc3c2)CSSC[C@@H](C(=O)N[C@@H](Cc2ccc3ccccc3c2)C(N)=O)NC1=O [BIM 23042] (H-[d2Nal]CY[dW]KVC[2Nal]-NH2; disulfide 2-7) | 5.2 nM
CC(O)[C@H](NC(=O)[C@H](CCCCN)NC(=O)[C@@H](Cc1c[nH]c2ccccc12)NC(=O)[C@H](Cc1ccccc1)NC(=O)[C@@H](C)NC(=O)[C@@H](N)Cc1ccccc1)C(=O)N[C@@H](C)C(=O)N[C@H](C(N)=O)[C@@H](C)O (stereo partly drawn) [BIM 23051] (H-F[dA]F[dW]K[Thr(3ξ)]AT-NH2) | 53 nM
CC(C)[C@H](NC(=O)[C@H](CCCCN)NC(=O)[C@@H](Cc1c[nH]c2ccccc12)NC(=O)[C@H](Cc1ccc(O)cc1)NC(=O)[C@H](Cc1ccccc1)NC(=O)[C@H](N)Cc1ccccc1)C(=O)N[C@@H](Cc1ccccc1)C(=O)N[C@H](Cc1cccc2ccccc12)C(N)=O [BIM 23056] (H-[dF]FY[dW]KVF[d1Nal]-NH2) | 43 nM
CC(C)[C@H](NC(=O)[C@H](CCCCN)NC(=O)[C@@H](Cc1c[nH]c2ccccc12)NC(=O)[C@H](Cc1ccc(O)cc1)NC(=O)[C@H](Cc1ccc(Cl)cc1)NC(=O)[C@H](N)Cc1ccccc1)C(=O)N[C@@H](Cc1ccccc1)C(=O)N[C@H](C(N)=O)[C@@H](C)O [BIM 23057] (H-[dF][Phe(4-Cl)]Y[dW]KVFT-NH2) | 8.1 nM
CC(O)C1NC(=O)C(CCCCN)NC(=O)C(Cc2c[nH]c3ccccc23)NC(=O)C(Cc2ccc(O)cc2)NC(=O)C(NC(=O)C(N)Cc2ccccc2)CSSCC(C(=O)NCc2cccc3ccccc23)NC1=O (stereo not drawn) [BIM 23060] (H-FCYWKTC-{NH(1-naphthylmethyl)}; disulfide 2-7; configuration not given here) | 0.09 nM
CC(C)[C@H](NC(=O)[C@H](CCCCN)NC(=O)[C@@H](Cc1c[nH]c2ccccc12)NC(=O)[C@H](Cc1ccc(O)cc1)NC(=O)[C@H](Cc1ccc(Cl)cc1)NC(=O)[C@@H](N)Cc1ccccc1)C(=O)N[C@@H](Cc1ccccc1)C(=O)N[C@@H](Cc1ccc2ccccc2c1)C(N)=O [BIM 23063] (H-F[Phe(4-Cl)]Y[dW]KVF[2Nal]-NH2) | 43 nM
CC(C)[C@H](NC(=O)[C@H](CCCCN)NC(=O)[C@@H](Cc1c[nH]c2ccccc12)NC(=O)[C@H](Cc1ccc(O)cc1)NC(=O)[C@H](Cc1ccc(Cl)cc1)NC(=O)[C@@H](N)Cc1ccccc1)C(=O)N[C@@H](Cc1ccccc1)C(=O)N[C@H](C)C(N)=O [BIM 23064] (H-F[Phe(4-Cl)]Y[dW]KVF[dA]-NH2) | 17 nM
CC(C)[C@H](NC(=O)[C@H](CCCCN)NC(=O)[C@@H](Cc1c[nH]c2ccccc12)NC(=O)[C@H](Cc1ccc(O)cc1)NC(=O)[C@H](Cc1ccc([N+](=O)[O-])cc1)NC(=O)[C@H](N)Cc1ccccc1)C(=O)N[C@@H](Cc1ccccc1)C(=O)N[C@H](C(N)=O)[C@@H](C)O [BIM 23066] (H-[dF][Phe(4-NO2)]Y[dW]KVFT-NH2) | 2.4 nM
CC[C@H](NC(=O)[C@@H](N)Cc1ccc(Cl)cc1)C(=O)N[C@@H](Cc1ccc(O)cc1)C(=O)N[C@H](Cc1c[nH]c2ccccc12)C(=O)N[C@@H](CCCCN)C(=O)N[C@H](C(=O)N[C@@H](C)C(=O)N[C@H](Cc1ccccc1)C(N)=O)C(C)C [BIM 23067] (H-[Phe(4-Cl)][Abu]Y[dW]KVA[dF]-NH2) | 15 nM
C[C@@H](O)[C@H](NC(=O)[C@H](Cc1ccccc1)NC(=O)[C@@H](NC(=O)[C@H](CCCCN)NC(=O)[C@@H](Cc1c[nH]c2ccccc12)NC(=O)[C@H](Cc1ccc(O)cc1)NC(=O)[C@H](Cc1ccc(Cl)cc1)NC(=O)[C@H](N)Cc1ccccc1)[C@@H](C)O)C(N)=O [BIM 23068] (H-[dF][Phe(4-Cl)]Y[dW]KTFT-NH2) | 1.1 nM
CC(O)[C@H](NC(=O)[C@H](CCCCN)NC(=O)[C@@H](Cc1c[nH]c2ccccc12)NC(=O)[C@H](Cc1ccc(O)cc1)NC(=O)[C@@H](C)NC(=O)[C@@H](N)Cc1ccccc1)C(=O)N[C@@H](C)C(=O)N[C@@H](Cc1cccc2ccccc12)C(N)=O (stereo partly drawn) [BIM 23070] (H-F[dA]Y[dW]K[Thr(3ξ)]A[1Nal]-NH2) | 10 nM
CC[C@@H]1NC(=O)[C@H](CCCCN)NC(=O)[C@@H](Cc2c[nH]c3ccccc23)NC(=O)[C@H](Cc2ccc(O)cc2)NC(=O)[C@H](C)N(C)C(=O)[C@H](Cc2ccccc2)NC1=O [BIM-23027] (cyclo([Abu]F[NMeA]Y[dW]K)) | 6.2 nM
CC(C)[C@H](NC(=O)[C@H](CCCCN)NC(=O)[C@@H](Cc1c[nH]c2ccccc12)NC(=O)[C@H](Cc1ccc(O)cc1)NC(=O)[C@H](Cc1ccccc1)NC(=O)[C@@H](N)Cc1ccccc1)C(=O)N[C@@H](Cc1ccccc1)C(=O)N[C@H](C(N)=O)[C@@H](C)O [BIM-23058] (H-FFY[dW]KVFT-NH2) | 1.2 nM
CC(C)[C@@H]1NC(=O)[C@H](CCCCN)NC(=O)[C@@H](Cc2c[nH]c3ccccc23)NC(=O)[C@H](Cc2ccc(O)cc2)NC(=O)CCSSC(C(=O)N[C@@H](Cc2ccccc2)C(N)=O)NC1=O (stereo partly drawn) [CAS_117580-24-2] ([Mpa]Y[dW]KV[X1]F-NH2; disulfide 1-6) | 3.9 nM
C[C@@H](O)[C@H](NC(=O)[C@H](Cc1ccccc1)NC(=O)[C@@H](NC(=O)[C@H](CCCCN)NC(=O)[C@@H](Cc1c[nH]c2ccccc12)NC(=O)[C@H](Cc1ccccc1)NC(=O)[C@H](Cc1ccccc1)NC(=O)[C@H](N)Cc1ccccc1)[C@@H](C)O)C(N)=O [CAS_133073-82-2] (H-[dF]FF[dW]KTFT-NH2) | 0.002 nM
C[C@@H](O)[C@H](NC(=O)[C@H](Cc1ccccc1)NC(=O)[C@@H](NC(=O)[C@H](CCCCN)NC(=O)[C@@H](Cc1c[nH]c2ccccc12)NC(=O)[C@H](Cc1ccc(O)cc1)NC(=O)[C@H](Cc1ccc(Cl)cc1)NC(=O)[C@H](N)Cc1ccc2ccccc2c1)[C@@H](C)O)C(N)=O [CAS_150155-63-8] (H-[d2Nal][Phe(4-Cl)]Y[dW]KTFT-NH2) | 9.5 nM
CC(C)[C@H](NC(=O)[C@H](CCCCN)NC(=O)[C@@H](Cc1c[nH]c2ccccc12)NC(=O)[C@H](Cc1ccc(O)cc1)NC(=O)[C@H](C)NC(=O)[C@H](N)Cc1ccc(Cl)cc1)C(=O)N[C@@H](C)C(=O)N[C@@H](Cc1ccc2ccccc2c1)C(N)=O [CAS_150155-67-2] (H-[dPhe(4-Cl)]AY[dW]KVA[2Nal]-NH2) | 14 nM
CC(C)C1NC(=O)C(CCCCN)NC(=O)C(Cc2c[nH]c3ccccc23)NC(=O)C(Cc2ccc(O)cc2)NC(=O)C(C)N(C)C(=O)C(Cc2ccccc2)NC1=O (stereo not drawn) [CAS_3086456] | 5.5 nM
CC(C)[C@H](NC(=O)[C@H](CCCCN)NC(=O)[C@@H](Cc1c[nH]c2ccccc12)NC(=O)[C@H](Cc1ccc(O)cc1)NC(=O)[C@H](C)NCc1ccc2ccccc2c1)C(=O)N[C@@H](C)C(=O)N[C@H](C(N)=O)[C@@H](C)O [D-Nal-Ala-Tyr-D-Trp-Lys-Val-Ala-Thr-NH2] (H-[X3]Y[dW]KVAT-NH2) | 146 nM
C[C@@H](O)[C@H](NC(=O)[C@@H]1CSSC[C@H](NC(=O)[C@H](N)Cc2ccc3ccccc3c2)C(=O)N[C@@H](Cc2ccc(O)cc2)C(=O)N[C@H](Cc2c[nH]c3ccccc23)C(=O)N[C@@H](CCCCN)C(=O)N[C@@H]([C@@H](C)O)C(=O)N1)C(N)=O [D-Nal-c[Cys-Tyr-D-Trp-Lys-Thr-Cys]-Thr-NH2] | 0.08 nM
CC(C)[C@H](NC(=O)[C@H](CCCCN)NC(=O)[C@@H](Cc1c[nH]c2ccccc12)NC(=O)[C@H](Cc1ccc(O)cc1)NC(=O)[C@H](C)NC(=O)[C@H](N)Cc1ccccc1)C(=O)N[C@@H](C)C(=O)N[C@H](Cc1ccc2ccccc2c1)C(N)=O [D-Phe-AIa-Tyr-D-Trp-Lys-Val-Ala-D-Nal-NH2] (H-[dF]AY[dW]KVA[d2Nal]-NH2) | 5.9 nM
CC[C@@H]1NC(=O)[C@H](CCCCN)NC(=O)[C@@H](Cc2c[nH]c3ccccc23)NC(=O)[C@H](Cc2ccc(O)cc2)NC(=O)[C@@H](NC(=O)[C@H](N)Cc2ccccc2)CSSC[C@@H](C(=O)N[C@@H](Cc2ccc3ccccc3c2)C(N)=O)NC1=O [D-Phe-Cys-Tyr-D-Trp-Lys-Abu-Cys-Nal-NH] (H-[dF]CY[dW]K[Abu]C[2Nal]-NH2; disulfide 2-7) | 6 nM
